Measurements: the NIST ThermoML archive (doi:10.1016/j.jct.2018.05.022)
Numbers after ± are expanded uncertainties.

Assay: molar heat capacity at constant volume
Details: Liquid, Vacuum adiabatic calorimetry

C=C(F)C(F)(F)F [2,3,3,3-tetrafluoro-1-propene]
molar heat capacity at constant volume (240.93 K, 2261 kPa): 92.26 ± 1.6 J/K/mol | molar heat capacity at constant volume (241.09 K, 2247 kPa): 91.8 ± 1.6 J/K/mol | molar heat capacity at constant volume (243.43 K, 4295 kPa): 92.26 ± 1.6 J/K/mol | molar heat capacity at constant volume (243.57 K, 4255 kPa): 92.26 ± 1.6 J/K/mol | molar heat capacity at constant volume (245.94 K, 6342 kPa): 92.37 ± 1.6 J/K/mol | molar heat capacity at constant volume (246.04 K, 6272 kPa): 92.15 ± 1.6 J/K/mol | molar heat capacity at constant volume (248.38 K, 8336 kPa): 92.72 ± 1.7 J/K/mol | molar heat capacity at constant volume (248.49 K, 8272 kPa): 93.06 ± 1.7 J/K/mol | molar heat capacity at constant volume (250.77 K, 10288 kPa): 93.29 ± 1.7 J/K/mol | molar heat capacity at constant volume (250.92 K, 10256 kPa): 93.4 ± 1.7 J/K/mol | molar heat capacity at constant volume (255.49 K, 1804 kPa): 95.79 ± 1.7 J/K/mol | molar heat capacity at constant volume (255.68 K, 1821 kPa): 96.48 ± 1.7 J/K/mol | molar heat capacity at constant volume (257.93 K, 3569 kPa): 97.51 ± 1.7 J/K/mol | molar heat capacity at constant volume (258.1 K, 3572 kPa): 96.48 ± 1.7 J/K/mol | molar heat capacity at constant volume (260.34 K, 5312 kPa): 97.62 ± 1.7 J/K/mol | molar heat capacity at constant volume (260.51 K, 5317 kPa): 97.16 ± 1.7 J/K/mol | molar heat capacity at constant volume (262.77 K, 7065 kPa): 97.51 ± 1.7 J/K/mol | molar heat capacity at constant volume (262.92 K, 7055 kPa): 98.53 ± 1.8 J/K/mol | molar heat capacity at constant volume (265.3 K, 8891 kPa): 98.65 ± 1.7 J/K/mol | molar heat capacity at constant volume (265.35 K, 8807 kPa): 98.87 ± 1.7 J/K/mol | molar heat capacity at constant volume (267.77 K, 10554 kPa): 98.87 ± 1.8 J/K/mol | molar heat capacity at constant volume (267.88 K, 10750 kPa): 99.22 ± 1.7 J/K/mol | molar heat capacity at constant volume (270.17 K, 12276 kPa): 99.56 ± 1.8 J/K/mol | molar heat capacity at constant volume (271.12 K, 1842 kPa): 101.38 ± 1.8 J/K/mol | molar heat capacity at constant volume (273.54 K, 1673 kPa): 102.07 ± 1.8 J/K/mol | molar heat capacity at constant volume (273.64 K, 3435 kPa): 101.5 ± 1.8 J/K/mol | molar heat capacity at constant volume (275.98 K, 3181 kPa): 102.07 ± 1.8 J/K/mol | molar heat capacity at constant volume (276.14 K, 5012 kPa): 101.27 ± 1.8 J/K/mol | molar heat capacity at constant volume (278.43 K, 4690 kPa): 101.95 ± 1.8 J/K/mol | molar heat capacity at constant volume (278.65 K, 6595 kPa): 102.3 ± 1.8 J/K/mol | molar heat capacity at constant volume (280.94 K, 6231 kPa): 102.64 ± 1.8 J/K/mol | molar heat capacity at constant volume (281.16 K, 8178 kPa): 101.61 ± 1.8 J/K/mol | molar heat capacity at constant volume (283.46 K, 7781 kPa): 102.75 ± 1.8 J/K/mol | molar heat capacity at constant volume (283.66 K, 9754 kPa): 102.52 ± 1.8 J/K/mol | molar heat capacity at constant volume (285.91 K, 9285 kPa): 102.98 ± 1.8 J/K/mol | molar heat capacity at constant volume (286.19 K, 11346 kPa): 103.09 ± 1.7 J/K/mol | molar heat capacity at constant volume (288.36 K, 10789 kPa): 104.01 ± 1.8 J/K/mol | molar heat capacity at constant volume (289.3 K, 1701 kPa): 105.15 ± 1.8 J/K/mol | molar heat capacity at constant volume (291.52 K, 1716 kPa): 105.72 ± 1.8 J/K/mol | molar heat capacity at constant volume (291.84 K, 3037 kPa): 105.49 ± 1.8 J/K/mol | molar heat capacity at constant volume (294.09 K, 3043 kPa): 106.4 ± 1.8 J/K/mol | molar heat capacity at constant volume (294.38 K, 4378 kPa): 105.37 ± 1.8 J/K/mol | molar heat capacity at constant volume (296.67 K, 4372 kPa): 106.4 ± 1.8 J/K/mol | molar heat capacity at constant volume (296.96 K, 5740 kPa): 105.49 ± 1.8 J/K/mol | molar heat capacity at constant volume (299.24 K, 5702 kPa): 106.97 ± 1.8 J/K/mol | molar heat capacity at constant volume (299.7 K, 7182 kPa): 105.94 ± 1.7 J/K/mol | molar heat capacity at constant volume (301.83 K, 7034 kPa): 106.86 ± 1.8 J/K/mol | molar heat capacity at constant volume (302.46 K, 8635 kPa): 106.74 ± 1.8 J/K/mol | molar heat capacity at constant volume (304.42 K, 8365 kPa): 107.54 ± 1.8 J/K/mol | molar heat capacity at constant volume (305.12 K, 10039 kPa): 106.29 ± 1.8 J/K/mol | molar heat capacity at constant volume (307.01 K, 9699 kPa): 108 ± 1.8 J/K/mol | molar heat capacity at constant volume (307.78 K, 11440 kPa): 106.97 ± 1.8 J/K/mol | molar heat capacity at constant volume (309.61 K, 11035 kPa): 108.34 ± 1.8 J/K/mol | molar heat capacity at constant volume (310.44 K, 12837 kPa): 107.54 ± 1.8 J/K/mol | molar heat capacity at constant volume (312.2 K, 12365 kPa): 108.8 ± 1.8 J/K/mol | molar heat capacity at constant volume (312.59 K, 3164 kPa): 108.57 ± 1.8 J/K/mol | molar heat capacity at constant volume (315.28 K, 1983 kPa): 109.37 ± 1.8 J/K/mol | molar heat capacity at constant volume (315.29 K, 4301 kPa): 108.8 ± 1.8 J/K/mol | molar heat capacity at constant volume (317.99 K, 5437 kPa): 108.91 ± 1.8 J/K/mol | molar heat capacity at constant volume (318.03 K, 3065 kPa): 109.71 ± 1.8 J/K/mol | molar heat capacity at constant volume (320.68 K, 6570 kPa): 110.62 ± 1.8 J/K/mol | molar heat capacity at constant volume (320.8 K, 4151 kPa): 110.05 ± 1.8 J/K/mol | molar heat capacity at constant volume (323.36 K, 7700 kPa): 110.28 ± 1.8 J/K/mol | molar heat capacity at constant volume (323.57 K, 5240 kPa): 110.62 ± 1.8 J/K/mol | molar heat capacity at constant volume (326.04 K, 8827 kPa): 110.62 ± 1.8 J/K/mol | molar heat capacity at constant volume (326.35 K, 6332 kPa): 111.42 ± 1.8 J/K/mol | molar heat capacity at constant volume (328.72 K, 9952 kPa): 112.22 ± 1.8 J/K/mol | molar heat capacity at constant volume (329.14 K, 7427 kPa): 112.67 ± 1.8 J/K/mol | molar heat capacity at constant volume (331.41 K, 11079 kPa): 112.9 ± 1.8 J/K/mol | molar heat capacity at constant volume (331.93 K, 8524 kPa): 113.36 ± 1.8 J/K/mol | molar heat capacity at constant volume (334.09 K, 12201 kPa): 113.24 ± 1.8 J/K/mol | molar heat capacity at constant volume (334.72 K, 9619 kPa): 113.47 ± 1.8 J/K/mol | molar heat capacity at constant volume (337.49 K, 10709 kPa): 113.7 ± 1.8 J/K/mol | molar heat capacity at constant volume (340.26 K, 11796 kPa): 114.61 ± 1.8 J/K/mol

CCC [propane]
molar heat capacity at constant volume (236.31 K, 2219 kPa): 65.79 ± 1.3 J/K/mol | molar heat capacity at constant volume (238.69 K, 4211 kPa): 66.23 ± 1.3 J/K/mol | molar heat capacity at constant volume (241.04 K, 6180 kPa): 66.67 ± 1.3 J/K/mol | molar heat capacity at constant volume (243.36 K, 8127 kPa): 66.58 ± 1.3 J/K/mol | molar heat capacity at constant volume (245.69 K, 10074 kPa): 66.94 ± 1.3 J/K/mol | molar heat capacity at constant volume (250.09 K, 2085 kPa): 67.6 ± 1.4 J/K/mol | molar heat capacity at constant volume (252.35 K, 3780 kPa): 68.13 ± 1.4 J/K/mol | molar heat capacity at constant volume (254.59 K, 5476 kPa): 68.13 ± 1.4 J/K/mol | molar heat capacity at constant volume (256.82 K, 7162 kPa): 67.91 ± 1.4 J/K/mol | molar heat capacity at constant volume (259.03 K, 8839 kPa): 68.48 ± 1.4 J/K/mol | molar heat capacity at constant volume (261.25 K, 10512 kPa): 68.61 ± 1.4 J/K/mol | molar heat capacity at constant volume (264.41 K, 2430 kPa): 69.1 ± 1.4 J/K/mol | molar heat capacity at constant volume (266.66 K, 3950 kPa): 69.19 ± 1.4 J/K/mol | molar heat capacity at constant volume (268.92 K, 5488 kPa): 70.24 ± 1.4 J/K/mol | molar heat capacity at constant volume (271.21 K, 7042 kPa): 70.33 ± 1.4 J/K/mol | molar heat capacity at constant volume (273.5 K, 8593 kPa): 70.2 ± 1.4 J/K/mol | molar heat capacity at constant volume (275.81 K, 10155 kPa): 70.55 ± 1.4 J/K/mol | molar heat capacity at constant volume (283.73 K, 2629 kPa): 71.61 ± 1.3 J/K/mol | molar heat capacity at constant volume (284.6 K, 1745 kPa): 71.3 ± 1.5 J/K/mol | molar heat capacity at constant volume (286.92 K, 3057 kPa): 71.88 ± 1.5 J/K/mol | molar heat capacity at constant volume (287.25 K, 4679 kPa): 71.92 ± 1.5 J/K/mol | molar heat capacity at constant volume (289.25 K, 4373 kPa): 72.23 ± 1.5 J/K/mol | molar heat capacity at constant volume (289.61 K, 6040 kPa): 71.96 ± 1.4 J/K/mol | molar heat capacity at constant volume (291.57 K, 5681 kPa): 72.32 ± 1.5 J/K/mol | molar heat capacity at constant volume (291.99 K, 7411 kPa): 72.36 ± 1.4 J/K/mol | molar heat capacity at constant volume (293.9 K, 6981 kPa): 72.98 ± 1.5 J/K/mol | molar heat capacity at constant volume (294.35 K, 8774 kPa): 72.85 ± 1.5 J/K/mol | molar heat capacity at constant volume (296.28 K, 8309 kPa): 73.15 ± 1.4 J/K/mol | molar heat capacity at constant volume (296.69 K, 10124 kPa): 72.93 ± 1.5 J/K/mol | molar heat capacity at constant volume (298.66 K, 9622 kPa): 73.2 ± 1.5 J/K/mol | molar heat capacity at constant volume (299 K, 11450 kPa): 73.24 ± 1.5 J/K/mol | molar heat capacity at constant volume (300.98 K, 10901 kPa): 74.35 ± 1.5 J/K/mol | molar heat capacity at constant volume (301.28 K, 12754 kPa): 73.24 ± 1.5 J/K/mol | molar heat capacity at constant volume (303.33 K, 12177 kPa): 74.65 ± 1.5 J/K/mol | molar heat capacity at constant volume (305.66 K, 13418 kPa): 75.09 ± 1.5 J/K/mol | molar heat capacity at constant volume (306.13 K, 1912 kPa): 74.7 ± 1.5 J/K/mol | molar heat capacity at constant volume (308.58 K, 3022 kPa): 75.58 ± 1.5 J/K/mol | molar heat capacity at constant volume (311.04 K, 4140 kPa): 75.62 ± 1.5 J/K/mol | molar heat capacity at constant volume (313.5 K, 5260 kPa): 76.42 ± 1.5 J/K/mol | molar heat capacity at constant volume (315.96 K, 6379 kPa): 76.55 ± 1.5 J/K/mol | molar heat capacity at constant volume (318.43 K, 7498 kPa): 76.59 ± 1.5 J/K/mol | molar heat capacity at constant volume (320.89 K, 8615 kPa): 77.52 ± 1.5 J/K/mol | molar heat capacity at constant volume (323.37 K, 9735 kPa): 77.74 ± 1.5 J/K/mol | molar heat capacity at constant volume (325.84 K, 10852 kPa): 78.18 ± 1.5 J/K/mol | molar heat capacity at constant volume (328.28 K, 11956 kPa): 78.89 ± 1.5 J/K/mol | molar heat capacity at constant volume (330.71 K, 13052 kPa): 79.33 ± 1.5 J/K/mol | molar heat capacity at constant volume (332.33 K, 10672 kPa): 78.89 ± 1.5 J/K/mol | molar heat capacity at constant volume (334.81 K, 11722 kPa): 79.81 ± 1.5 J/K/mol | molar heat capacity at constant volume (337.26 K, 12761 kPa): 80.47 ± 1.5 J/K/mol | molar heat capacity at constant volume (339.76 K, 13813 kPa): 80.65 ± 1.5 J/K/mol
